These results are taken from ChEMBL document CHEMBL5370564, “Discovery of novel hybrids of mTOR inhibitor and NO donor as potential anti-tumor therapeutics” (Bioorg Med Chem, 2023).

Each structure is given as a SMILES string. Calls of active or inactive are those of the source. The rule behind the calls is not given here.

Data set [1] deals with Serine/threonine-protein kinase mTOR (Homo sapiens, UniProt P42345). Kind of data set: Inhibition of mTOR (unknown origin) using Ulight-4E-BP1 peptide as substrate incubated for 45 mins in presence of ATP by Lance Ultra assay.
Data set [2] relates to HL-60. Kind of data set: Induction of NO release in human HL-60 cells at 100 uM incubated for 12 hrs by griess reagent based colorimetric assay. The data set is classed as functional, cell-based. (In general: Nitrite, measured by Griess reagent, commonly stands in for NO production.)
Another data set has as its system HepG2. Kind of data set: Antiproliferative activity against human HepG2 cells assessed as inhibition of cell growth incubated for 70 hrs by CCK-8 assay. The format is functional, cell-based. Conditions: HepG2, 70 h.
Another data set relates to MCF7. Kind of data set: Antiproliferative activity against human MCF7 cells assessed as inhibition of cell growth incubated for 70 hrs by CCK-8 assay. The format is functional, cell-based. Conditions: MCF7, 70 h.
Data set [3] relates to HL-60. Kind of data set: Antiproliferative activity against human HL-60 cells assessed as inhibition of cell growth incubated for 70 hrs by CCK-8 assay. The data set is classed as functional, cell-based. Conditions: HL-60, 70 h.
Data set [4] in a line: Cytotoxicity against HUVEC assessed as inhibition of cell growth incubated for 70 hrs by CCK-8 assay. The data set is classed as toxicity, cell-based. Conditions: human, HUVEC cells.
A further data set relates to mTORC2 (Homo sapiens). Kind of data set: Inhibition of mTORC2 in human HL-60 cells assessed as reduction in Akt phosphorylation at S473 residue incubated for 24 hrs by Western blot assay. Conditions: dose 20-160 nM.
Another data set has as its system mTORC1 (Homo sapiens). Nature of the data set: Inhibition of mTORC1 in human HL-60 cells assessed as reduction in S6 phosphorylation at Ser235/236 residue incubated for 24 hrs by Western blot assay. Conditions: dose 20-160 nM. On the technique in general: Immunoblotting shows a protein as a band on a membrane.

With `CC(COc1no[n+]([O-])c1S(=O)(=O)c1ccccc1)NC(=O)CCCn1nc(-c2ccc3oc(N)nc3c2)c2c(N)ncnc21` (stereo unspecified), the half-inhibitory concentration (IC50) (usually the concentration at which inhibition is half-maximal) is 5.96 nM in data set [1], more than 10000 nM with HepG2, more than 10000 nM in the data set on MCF7 and 6410 nM with HL-60 [3]. Moreover, the result in the data set on HL-60 [2] was Active. Further, the IC50 at 70 h in data set [4] is 9590 nM.
In the case of `Nc1nc2cc(-c3nn(CCCC(=O)OCc4ccc(OCc5c(-c6ccccc6)no[n+]5[O-])cc4)c4ncnc(N)c34)ccc2o1`, the half-inhibitory concentration (IC50) in data set [1] is more than 1000 nM.
Take `Nc1nc2cc(-c3nn(CCCC(=O)OCCCCCCOc4no[n+]([O-])c4S(=O)(=O)c4ccccc4)c4ncnc(N)c34)ccc2o1`: in data set [1], the concentration for half-maximal inhibition (IC50) was 11 nM.
On to `CC(C)n1nc(-c2ccc3oc(N)nc3c2)c2c(N)ncnc21` [SAPANISERTIB], for which the outcome with HL-60 [2] was inactive. The results for the IC50 in the data set with HepG2, with MCF7 and in the data set with HL-60 [3] were 1730 nM, 1230 nM and 160 nM, respectively. Moreover, the IC50 at 70 h in data set [4] was more than 10000 nM.
With `Nc1nc2cc(-c3nn(CCCC(=O)OCCCCCOc4no[n+]([O-])c4S(=O)(=O)c4ccccc4)c4ncnc(N)c34)ccc2o1`, the IC50 in data set [1] came out at 9.52 nM; with HepG2, 1430 nM; with MCF7, 2720 nM; in the data set on HL-60 [3] it was 160 nM. Moreover, the outcome in the data set on HL-60 [2] was Active. Besides, the IC50 at 70 h in data set [4] is more than 10000 nM.
With `Nc1nc2cc(-c3nn(CCCC(=O)OCCOc4no[n+]([O-])c4S(=O)(=O)c4ccccc4)c4ncnc(N)c34)ccc2o1`, the IC50 was 3.31 nM in data set [1], 1050 nM with HepG2, 2700 nM in the data set on MCF7 and 80 nM in the data set on HL-60 [3]. Moreover, the outcome with HL-60 [2] was Active. Also, the IC50 at 70 h in data set [4] came out at 8940 nM.
In the case of `Nc1nc2cc(-c3nn(CCCC(=O)OCCCOc4no[n+]([O-])c4S(=O)(=O)c4ccccc4)c4ncnc(N)c34)ccc2o1`, the IC50 in data set [1] came out at 6.39 nM; in the data set on HepG2, 1320 nM; in the data set on MCF7 it was 2410 nM; in the data set with HL-60 [3], 90 nM. Moreover, the result in the data set with HL-60 [2] was Active. The half-inhibitory concentration (IC50) at 70 h in data set [4] turned out to be 9370 nM.
Take `Nc1nc2cc(-c3nn(CCCC(=O)NCCOc4no[n+]([O-])c4S(=O)(=O)c4ccccc4)c4ncnc(N)c34)ccc2o1`: the 50% inhibitory concentration (IC50) in data set [1] is 7.9 nM; with HepG2, more than 10000 nM; with MCF7, 6110 nM; in the data set on HL-60 [3], 2050 nM. In the data set on HL-60 [2], the outcome was Active. Moreover, the concentration for half-maximal inhibition (IC50) at 70 h in data set [4] is more than 10000 nM.
`Nc1nc2cc(-c3nn(CCCC(=O)OCCO[N+](=O)[O-])c4ncnc(N)c34)ccc2o1`: the IC50 was 9.5 nM in data set [1], more than 10000 nM in the data set on HepG2, more than 10000 nM with MCF7 and more than 10000 nM in the data set with HL-60 [3]. Moreover, the concentration for half-maximal inhibition (IC50) at 70 h in data set [4] is more than 10000 nM.
Take `Nc1nc2cc(-c3nn(CCCC(=O)OCCCCCCO[N+](=O)[O-])c4ncnc(N)c34)ccc2o1`: the half-maximal inhibitory concentration (IC50) in data set [1] was 19.8 nM.
On the same count and under the same terms, the value for `Nc1nc2cc(-c3nn(CCCC(=O)OCCCCO[N+](=O)[O-])c4ncnc(N)c34)ccc2o1` was 12.9 nM.
Regarding `Nc1nc2cc(-c3nn(CCCC(=O)OCc4cccc(OCc5c(-c6ccccc6)no[n+]5[O-])c4)c4ncnc(N)c34)ccc2o1`, the IC50 in data set [1] came out at 337 nM.
Same read-out and setting: the value for `Nc1nc2cc(-c3nn(CCCC(=O)OCc4ccccc4OCc4c(-c5ccccc5)no[n+]4[O-])c4ncnc(N)c34)ccc2o1` was 45.1 nM.
As for `Nc1nc2cc(-c3nn(CCCC(=O)OCC#CCOc4no[n+]([O-])c4S(=O)(=O)c4ccccc4)c4ncnc(N)c34)ccc2o1`, the IC50 in data set [1] was 3.65 nM; in the data set on HepG2, 240 nM; in the data set with MCF7, 880 nM; in the data set with HL-60 [3] it was 20 nM. In addition, the result with HL-60 [2] was Active. Moreover, in data set [4], the half-inhibitory concentration (IC50) at 70 h was more than 10000 nM. Besides, the inhibition result in the data set on mTORC2 (Homo sapiens) and with mTORC1 (Homo sapiens) was “Dose-Dependent Effect” in each case.
On to `Nc1nc2cc(-c3nn(CCCC(=O)OCCc4ccc(OCc5c(-c6ccccc6)no[n+]5[O-])cc4)c4ncnc(N)c34)ccc2o1`, for which the half-inhibitory concentration (IC50) in data set [1] was more than 1000 nM.
With `Nc1nc2cc(-c3nn(CCCC(=O)OCCOCCOc4no[n+]([O-])c4S(=O)(=O)c4ccccc4)c4ncnc(N)c34)ccc2o1`, the half-inhibitory concentration (IC50) in data set [1] worked out at 7.02 nM; in the data set on HepG2, 1430 nM; in the data set on MCF7, 1390 nM; in the data set on HL-60 [3] it was 520 nM. For the same compound, the outcome in the data set with HL-60 [2] was Active. Moreover, the IC50 at 70 h in data set [4] was more than 10000 nM.
In the case of `Nc1nc2cc(-c3nn(CCCC(=O)OCCCCCO[N+](=O)[O-])c4ncnc(N)c34)ccc2o1`, the IC50 in data set [1] was 12.5 nM.
With `Nc1nc2cc(-c3nn(CCCC(=O)OCc4c(-c5ccccc5)no[n+]4[O-])c4ncnc(N)c34)ccc2o1`, the half-maximal inhibitory concentration (IC50) is 13.3 nM in data set [1], more than 10000 nM with HepG2, more than 10000 nM in the data set with MCF7 and 7700 nM in the data set on HL-60 [3]. Further, the result in the data set on HL-60 [2] was Active. Besides, the IC50 at 70 h in data set [4] is more than 10000 nM.
Take `Nc1nc2cc(-c3nn(CCCC(=O)OCCCCOc4no[n+]([O-])c4S(=O)(=O)c4ccccc4)c4ncnc(N)c34)ccc2o1`: the half-maximal inhibitory concentration (IC50) amounted to 6.71 nM in data set [1], 1480 nM in the data set on HepG2, 610 nM with MCF7 and 70 nM with HL-60 [3]. Besides, the outcome with HL-60 [2] was Active. In data set [4], the IC50 at 70 h is more than 10000 nM.
As to `Nc1nc2cc(-c3nn(CCCC(=O)NCCCOc4no[n+]([O-])c4S(=O)(=O)c4ccccc4)c4ncnc(N)c34)ccc2o1`, the half-inhibitory concentration (IC50) in data set [1] worked out at 4.2 nM; in the data set on HepG2, 9960 nM; in the data set on MCF7, 5180 nM; in the data set with HL-60 [3], 3500 nM. Besides, the result in the data set on HL-60 [2] was Active. For the same compound, the IC50 at 70 h in data set [4] was more than 10000 nM.
In the case of `Nc1nc2cc(-c3nn(CCCC(=O)OCCCO[N+](=O)[O-])c4ncnc(N)c34)ccc2o1`, the IC50 in data set [1] is 9.82 nM; with HepG2 it was more than 10000 nM; in the data set with MCF7 it was more than 10000 nM; in the data set with HL-60 [3] it was 7470 nM. The outcome with HL-60 [2] was Active. Also, the half-maximal inhibitory concentration (IC50) at 70 h in data set [4] is more than 10000 nM.
